Assay results published in patent publication US11491232B2, “Lactuloside compounds and preparation and use thereof” (Fruithy Holdings Limited, priority 2017, dated 2022).

How the values were obtained:
[1] = Test on stability in mediums in vitro (buffer solutions with different pH, simulated intestinal fluid, simulated gastric fluid); assay type: physicochemical
Experimental: At 37° C., Compound 17 was incubated in different mediums (buffer solutions with different pH, a simulated intestinal fluid containing pancreatin, and simulated gastric fluid containing pepsin).
(§1) Other typical example compounds were tested for stability according to the above method, and the test results are shown in Table 8 below.

colon flora = assay: Stability in the presence of colon flora (content in colon of rat); assay type: in vitro ADME, SD rat
Experimental: A phosphate buffer solution with a pH of 7.0 was formulated, and then CO2 was introduced to the solution to adjust the pH to 6.8. Then, the content in colon of a male SD rat (body weight: 180-220 g) was placed in a water bath at 37° C., and added into the phosphate buffer solution with a pH of 6.8 as prepared above under the protection of N2 to a concentration of 20% (w/v). The buffer solution was kept in an oxygen-free environment. Then, the test Compound 17 was added to the buffer solution, and the solution was stirred uniformly.
Supernatant was analyzed with HPLC, where the amount of each ingredient was calculated by normalization.
Note: in the above table, “T14.148 (%)” represents the percentage of peak area of the material with a retention time of 14.148 min “T14.713 (%)” represents the percentage of peak area of the material with a retention time of 14.713 min. “T16.392 (%)” represents the percentage of peak area of the material with a retention time of 16.392 min. “T22.624 (%)” represents the percentage of peak area of the material with a retention time of 22.624 min.
as §1

[2] = Simulated intestinal fluid (containing pancreatin) (pH 6.8) (8 h)
[3] = male, Sprague-Dawley (SD), rat, 1 h, pH 6.8
[4] = Content in colon (pH 6.8) (1 h)

SMILES | Percentage of the example compound remaining (Composition, %) [1, 2] | Percentage of the released active drug (prednisolone, dexamethasone, budesonide, apremilast or prucalopride) (Composition, %) [1, 2] | Percentage of the example compound remaining (Composition, %) ([1]; Water (pH 1.2) (2 h)) | Percentage of the released active drug (prednisolone, dexamethasone, budesonide, apremilast or prucalopride) (Composition, %) ([1]; Water (pH 1.2) (2 h)) | Percentage of the example compound remaining (Composition, %) (colon flora; [3]) | Percentage of the released active drug (prednisolone, dexamethasone, budesonide, apremilast or prucalopride) (Composition, %) (colon flora; [3]) | Percentage of the example compound remaining (Composition, %) (colon flora; [4])
C[C@@H]1C[C@H]2[C@@H]3CCC4=CC(=O)C=C[C@]4(C)[C@@]3(F)[C@@H](O)C[C@]2(C)[C@@]1(O)C(=O)COC1(CO)O[C@H](CO)[C@@H](O[C@@H]2O[C@H](CO)[C@H](O)[C@H](O)[C@H]2O)[C@@H]1O (stereo partly drawn) [Compound 4, (11β,16α)-9-fluoro-11,17-dihydroxyl-16-methyl-21-{[4-O-(β-D-galactopyranosyl)-D-fructofuranosyl]oxy}pregna-1,4-diene-3,20-dione] | 99.4% | 0% | 25.0% | 72.7% | 15.6% | 50.3% | 
CCCC1O[C@@H]2C[C@H]3[C@@H]4CCC5=CC(=O)C=C[C@]5(C)[C@H]4[C@@H](O)C[C@]3(C)[C@]2(C(=O)COC2(CO)O[C@H](CO)C(O[C@@H]3OC(CO)[C@H](O)C(O)C3O)C2O)O1 (stereo partly drawn) [Compound 7, (11β,16α)-11-hydroxyl-16,17-(butylidenedioxy)-21-{[4-O-(β-D-galactopyranosyl)-D-fructofuranosyl]oxy}pregna-1,4-diene-3,20-dione] | 98.9% | 0.1% | 20.0% | 61.6% | 27.2% | 45.9% | 
CCOc1cc([C@@H](CS(C)(=O)=O)N2C(=O)c3cccc(N(C(C)=O)C4(CO)O[C@H](CO)C(O[C@@H]5OC(CO)[C@H](O)C(O)C5O)C4O)c3C2=O)ccc1OC (stereo partly drawn) [Compound 12, N-{2-[(S)-1-(3-ethoxy-4-methoxyphenyl)-2-(methylsulfonyl)ethyl]-1,3-dioxo-2,3-dihydro-1H-isoindol-4-yl}-N′-[4-O-(β-D-galactopyranosyl)-D-fructofuranosyl]acetamide] | 100% | 0% | 20.0% | 79.8% |  |  | 30.1%
COCCCN1CCC(N(C(=O)c2cc(Cl)c(N)c3c2OCC3)C2(CO)O[C@H](CO)C(O[C@@H]3OC(CO)[C@H](O)C(O)C3O)C2O)CC1 (stereo partly drawn) [Compound 13, 4-amino-5-chloro-2,3-dihydro-N-[1-(3-methoxypropyl)-4-piperidinyl]-N′-[4-O-(β-D-galactopyranosyl)-D-fructofuranosyl]-7-benzofurancarboxamide] | 99.4% | 0% | 4.4% | 95.0% |  |  | 18.7%
COCCCN1CCC(NC(=O)c2cc(Cl)c(NC3(CO)O[C@H](CO)[C@@H](O[C@@H]4O[C@H](CO)[C@H](O)[C@H](O)[C@H]4O)[C@@H]3O)c3c2OCC3)CC1 (stereo partly drawn) [Compound 14, 5-chloro-2,3-dihydro-4-{[4-O-(β-D-galactopyranosyl)-D-fructofuranosyl]amino}-N-[1-(3-methoxypropyl)-4-piperidinyl]-7-benzofurancarboxamide] | 98.3% | 1.1% |  | 99.5% |  |  | 2.1%
